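Protocol summary: plate cells (96-well), add compound at 5 concentrations, incubate 48 h, interpolate endpoints linearly. TGI: concentration producing complete growth inhibition.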

Assay in all cases: NCI tumour cell line growth inhibition, 48 h
In assay [1] the test system is HOP-62 NSCLC.
Assay [2] deals with SN12C renal.
For assay [3], the system named is 786-0 renal.
Assay [4] has as its system NCI-H522 lung.
For assay [5], the system named is NCI-H23 lung.
The subject of assay [6] is TK-10 renal.
Assay [7] concerns SF-268 CNS.
In assay [8] the test system is SK-MEL-2 melanoma.
Assay [9] relates to UO-31 renal.
In assay [10] the test system is DU-145 prostate.
In assay [11] the test system is MOLT-4 leukemia.

In the case of `CCOC(=O)C1SC(=Nc2ccc(Cl)cc2Cl)N=C1C` (stereo not given), the TGI in assay [1], in assay [2], in assay [3], in assay [4], in [5] and in assay [6] was above 100 µM each time. In addition, the TGI in assay [7], in assay [8] and in assay [9] was above 100 µM throughout.
As to `NC(=O)Cn1c(=O)oc2cc(C(=O)CN3CCOCC3)ccc21`, the TGI in assay [1], in assay [2], in assay [10], in assay [3], in assay [7] and in assay [11] was above 100 µM in each case. In addition, the TGI in assay [8] is above 100 µM.
In the case of `C#CCOCn1cc(C)c(=O)[nH]c1=O`, the TGI in assay [1], in [2], in [10], in assay [3], in [5] and in assay [6] was above 100 µM in each case. Further, the TGI in assay [7], in assay [11], in assay [8] and in assay [9] was above 100 µM in each case.
For `CN(C)C(=NC#N)N(Cc1ccccc1)Cc1ccccc1`, the TGI in [1] is above 100 µM; in [2], above 100 µM; in assay [3], above 100 µM; in assay [4], 81.5 µM; in assay [5] it was above 100 µM; in assay [6], above 100 µM. Besides, the TGI in assay [7], in [8] and in assay [9] was above 100 µM throughout.
Consider `COc1ccccc1NC(=O)CC(=O)N1N=C(c2ccccc2)C(N=Nc2ccc(Cl)cc2)C1=O` (stereo not given), for which the TGI in assay [1] was 48.6 µM; in [2], above 100 µM; in assay [3] it was 37 µM; in [4], above 100 µM; in [5] it was above 100 µM; in assay [6], 52.3 µM. The TGI was above 100 µM in assay [7], above 100 µM in assay [11], above 100 µM in assay [8] and 52.4 µM in assay [9].
For the compound `Cc1ccc(-c2nnc3s/c(=C\c4ccc(N(C)C)cc4)c(=O)n23)cc1`, the TGI in [1], in assay [2], in assay [3], in assay [4], in assay [5] and in [6] was above 100 µM throughout. The TGI in [7], in assay [11], in [8] and in [9] was above 100 µM in each case.
For `O=C(O)CCN(CCCN(CCC(=O)O)CCC(=O)O)CCC(=O)O`, the TGI in assay [1], in assay [2], in assay [3], in assay [4], in [5] and in assay [6] was above 100 µM throughout. Also, the TGI in [7], in [11] and in [8] was above 100 µM each time.
For `COC(=O)C(c1ccc(OC)cc1)N1C(=O)[C@@H](NC(=O)c2ccccc2)[C@H]1[C@@H](C)O` (stereo not given in full), the TGI in assay [1], in [2], in [3], in [4], in assay [5] and in assay [6] was above 100 µM in each case. The TGI in assay [7], in assay [11], in [8] and in assay [9] was above 100 µM each time.
As to `O=C1C(c2ccccc2)=C(c2ccccc2)C(c2ccc(Sc3ccc(C4=C(c5ccccc5)C(=O)C(c5ccccc5)=C4c4ccccc4)cc3)cc2)=C1c1ccccc1`, the TGI in assay [1], in assay [2], in assay [3], in assay [4], in assay [5] and in [6] was above 100 µM throughout. For the same compound, the TGI in assay [7], in [11], in assay [8] and in assay [9] was above 100 µM each time.
For the compound `O=c1[nH]c(=O)n(CCOc2ccc(Cl)cc2)cc1Nc1ccccc1`, the TGI in assay [1], in assay [2], in assay [10], in assay [3], in assay [5] and in assay [7] was above 100 µM throughout. The TGI in [11] and in assay [9] was above 100 µM in each case.
As to `NC(CCCCNCc1ccccc1)C(=O)O` (stereo not given), the TGI in assay [1], in assay [2], in assay [3], in assay [4], in assay [5] and in assay [6] was above 100 µM throughout. The TGI in assay [7], in assay [11], in assay [8] and in assay [9] was above 100 µM in each case.
As for `O=C(CC1(O)C(=O)Nc2c(Cl)cc(Cl)cc21)c1ccc(F)cc1` (stereo not given), the TGI in assay [1] was above 100 µM; in assay [2] it was above 100 µM; in [3], 38.9 µM; in assay [5], 70.9 µM; in assay [6], above 100 µM; in assay [7] it was above 100 µM. Further, the TGI in [8] and in assay [9] was above 100 µM throughout.
In the case of `CC(=O)NNc1nc(C)c(C(=O)/C=C/c2ccc(Cl)c(Cl)c2)s1`, the TGI in assay [1], in assay [2], in [3], in assay [4], in [5] and in assay [6] was above 100 µM in each case. Moreover, the TGI in assay [7], in assay [11], in [8] and in assay [9] was above 100 µM in each case.
`NC(N)=NS(=O)(=O)c1ccc(NC(=O)c2cccc3c(N)c4ccccc4nc23)cc1`: the TGI in assay [1], in assay [2], in [3], in assay [4], in assay [5] and in assay [6] was above 100 µM throughout. Besides, the TGI in assay [7], in assay [11], in [8] and in assay [9] was above 100 µM throughout.

Values taken from PubChem BioAssay (NCI).
